In US20110082166A1, “NOVEL 4-BENZHYDRYL-TETRAHYDRO-PYRIDINE DERIVATIVES AND THEIR USE AS MONOAMINE NEUROTRANSMITTER RE-UPTAKE INHIBITORS” (NEUROSEARCH A/S, priority 2008, published 2011):
Structures can show the parent of a compound that is named as a salt. Where two headings read alike, the source gives them in different places.

Key:
[1] = biological target: T1, reuptake of serotonine (5-HT) in synaptosomes (Rattus norvegicus, UniProt P31652); experiment: In vitro inhibition of 5-HT reuptake in synaptosomes; assay type: biochemical
T1 construct: in synaptosomes as described in WO 97/16451 (NeuroSearch A/S); from tissue
T1 sequence (P31652 whole entry): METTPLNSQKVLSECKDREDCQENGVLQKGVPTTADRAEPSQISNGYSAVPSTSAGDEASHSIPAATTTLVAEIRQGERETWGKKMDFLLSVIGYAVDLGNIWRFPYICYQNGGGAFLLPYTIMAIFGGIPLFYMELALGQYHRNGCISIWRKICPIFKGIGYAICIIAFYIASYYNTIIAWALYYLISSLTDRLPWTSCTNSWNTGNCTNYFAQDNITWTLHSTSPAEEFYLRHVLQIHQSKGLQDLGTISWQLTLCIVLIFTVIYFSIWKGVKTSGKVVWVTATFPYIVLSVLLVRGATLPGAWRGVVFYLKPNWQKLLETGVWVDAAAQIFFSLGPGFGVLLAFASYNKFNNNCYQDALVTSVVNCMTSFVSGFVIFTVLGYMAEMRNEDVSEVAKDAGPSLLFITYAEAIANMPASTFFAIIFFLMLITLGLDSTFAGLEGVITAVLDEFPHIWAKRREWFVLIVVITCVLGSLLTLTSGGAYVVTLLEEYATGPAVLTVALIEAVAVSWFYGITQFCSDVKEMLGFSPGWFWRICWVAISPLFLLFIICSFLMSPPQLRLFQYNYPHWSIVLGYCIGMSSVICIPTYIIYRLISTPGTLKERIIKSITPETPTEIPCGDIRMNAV
Method: Compounds were tested for their ability to inhibit the reuptake of the monoamine neurotransmitters dopamine (DA) noradrenaline (NA) and serotonine (5-HT) in synaptosomes as described in WO 97/16451 (NeuroSearch A/S).
The test values are given as IC50 (the concentration (μM) of the test substance which inhibits the specific binding of ^3H-DA, ^3H-NA, or ^3H-5-HT by 50%).

[2] = biological target: T2, reuptake of dopamine (DA) in synaptosomes (Rattus norvegicus, UniProt P23977); experiment: In vitro inhibition of DA reuptake in synaptosomes; assay type: biochemical
T2 construct: in synaptosomes as described in WO 97/16451 (NeuroSearch A/S); from tissue
T2 sequence (P23977 whole entry): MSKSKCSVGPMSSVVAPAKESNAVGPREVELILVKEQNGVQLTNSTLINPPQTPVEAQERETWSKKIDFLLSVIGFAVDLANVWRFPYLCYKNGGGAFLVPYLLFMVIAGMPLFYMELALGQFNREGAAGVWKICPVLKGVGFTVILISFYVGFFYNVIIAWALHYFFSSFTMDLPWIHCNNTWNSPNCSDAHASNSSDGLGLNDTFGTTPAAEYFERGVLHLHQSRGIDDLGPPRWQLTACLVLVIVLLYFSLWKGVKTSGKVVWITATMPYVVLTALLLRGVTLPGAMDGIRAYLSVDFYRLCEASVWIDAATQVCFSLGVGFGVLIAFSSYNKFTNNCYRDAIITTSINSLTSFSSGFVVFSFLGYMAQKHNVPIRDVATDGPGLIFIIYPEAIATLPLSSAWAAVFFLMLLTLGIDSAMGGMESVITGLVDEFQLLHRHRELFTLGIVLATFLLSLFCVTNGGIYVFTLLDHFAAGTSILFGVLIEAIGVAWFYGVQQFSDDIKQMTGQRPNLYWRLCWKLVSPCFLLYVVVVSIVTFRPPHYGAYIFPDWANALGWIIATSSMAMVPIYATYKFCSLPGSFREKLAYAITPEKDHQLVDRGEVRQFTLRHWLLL

[3] = biological target: T3, reuptake of noradrenaline (NA) in synaptosomes (Rattus norvegicus, UniProt Q63380); experiment: In vitro inhibition of NA reuptake in synaptosomes; assay type: biochemical
T3 construct: in synaptosomes as described in WO 97/16451 (NeuroSearch A/S); from tissue
T3 sequence (Q63380 1-617): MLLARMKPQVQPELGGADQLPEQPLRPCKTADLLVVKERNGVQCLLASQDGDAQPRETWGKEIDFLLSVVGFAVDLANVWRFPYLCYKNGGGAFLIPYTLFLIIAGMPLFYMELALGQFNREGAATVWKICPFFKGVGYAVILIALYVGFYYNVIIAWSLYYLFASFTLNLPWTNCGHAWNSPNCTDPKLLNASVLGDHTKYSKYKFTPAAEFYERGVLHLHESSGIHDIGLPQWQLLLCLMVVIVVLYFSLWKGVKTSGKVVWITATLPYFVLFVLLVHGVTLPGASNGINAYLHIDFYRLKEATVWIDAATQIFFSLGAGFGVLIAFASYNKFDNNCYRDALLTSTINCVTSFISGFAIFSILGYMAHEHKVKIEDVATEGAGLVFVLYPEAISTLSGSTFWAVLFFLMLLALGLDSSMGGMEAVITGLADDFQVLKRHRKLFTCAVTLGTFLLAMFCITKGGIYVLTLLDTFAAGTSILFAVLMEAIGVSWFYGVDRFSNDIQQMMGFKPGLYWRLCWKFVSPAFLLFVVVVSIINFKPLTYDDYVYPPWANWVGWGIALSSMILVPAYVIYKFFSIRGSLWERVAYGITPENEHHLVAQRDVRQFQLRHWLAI

Compound `CN1CC=C(C(c2ccccc2)c2ccccc2)CC1` [4-Benzhydryl-1-methyl-1,2,3,6-tetrahydro-pyridine] has an IC50 ([1]; synaptosomes, 3H-5-HT, read-out: 5-HT-uptake IC50) greater than 1000 nM, an IC50 ([2]; synaptosomes, 3H-DA, read-out: DA-uptake IC50) of 580 nM and an IC50 ([3]; synaptosomes, 3H-NA, read-out: NA-uptake IC50) of 600 nM.

`CN1CC=C(C(c2ccccc2)c2ccccc2)CC1` (as salt: fumaric acid salt) [4-Benzhydryl-1-methyl-1,2,3,6-tetrahydro-pyridine] gave a melting point of 177.6 to 179.2 °C.

With `C1=C(C(c2ccccc2)c2ccccc2)CCNC1` [4-Benzhydryl-1,2,3,6-tetrahydro-pyridine] the IC50 [1] was 3.5 nM, the IC50 [2] was 63 nM and the IC50 [3] was 45 nM.
